Assay results from patent US7842715B2, “N-benzoyl- and N-benzylpyrrolidin-3-ylamines as histamine-3 antagonists” (Wyeth LLC, priority 2006, dated 2010).
Counter-ions that a name gives are not always drawn.

Tests used:
Histamine Receptor H3 = target: T1, Histamine Receptor H3 (Homo sapiens, UniProt Q9Y5N1); assay: Cyclic AMP assay for histamine receptor H3 antagonism activity; type: cell-based; settings: stable H3 cells; histamine plus 10 μM forskolin; 30 min at 30° C.; read-out: cAMP Kb
T1 construct: expressed in transfected cells
Procedure: Cyclic AMP Assay for Histamine Receptor H3 Antagonism Activity.
Stable H3 cells are maintained in tissue culture flask in DMEM with high glucose, 10% FBS, 1× pen/strep, 500 ug/ml GY18, until experiment. Culture media is removed and cells are washed twice with PBS w/ Ca++ and Mg++ plus 500 μM IBMX. Cells are then detached by tapping on the side of the flask and resuspend in the same buffer. Two thousand cells/well are incubated with […] histamine plus 10 μM forskolin plus various concentrations of compounds in a total volume of 30 μL in 96 well plates for 30 min at 30° C. Final test compound concentrations range from 10^-4M to 10-9.5M at full log dilutions. Cyclic AMP levels are measured using HitHunter cAMP kit from Discoverx, cat# 900041 according to manufacturer's instruction. Chemiluminescence signals are detected using Top Count (Packard). Cyclic AMP levels in control cells receiving 10 μM forskolin plus 100 nM histamine are considered 0%, and in cells receiving 10 uM forskolin plus 100 nM histamine plus 1 μM clobenpropit are considered 100%. Data are expressed as % control and analyzed using Prizm soft ware. The Kb values are calculated using the following equation, KB=EC50 or IC50/[1+(ligand/Kd)].

T1 sequence (Q9Y5N1 whole entry): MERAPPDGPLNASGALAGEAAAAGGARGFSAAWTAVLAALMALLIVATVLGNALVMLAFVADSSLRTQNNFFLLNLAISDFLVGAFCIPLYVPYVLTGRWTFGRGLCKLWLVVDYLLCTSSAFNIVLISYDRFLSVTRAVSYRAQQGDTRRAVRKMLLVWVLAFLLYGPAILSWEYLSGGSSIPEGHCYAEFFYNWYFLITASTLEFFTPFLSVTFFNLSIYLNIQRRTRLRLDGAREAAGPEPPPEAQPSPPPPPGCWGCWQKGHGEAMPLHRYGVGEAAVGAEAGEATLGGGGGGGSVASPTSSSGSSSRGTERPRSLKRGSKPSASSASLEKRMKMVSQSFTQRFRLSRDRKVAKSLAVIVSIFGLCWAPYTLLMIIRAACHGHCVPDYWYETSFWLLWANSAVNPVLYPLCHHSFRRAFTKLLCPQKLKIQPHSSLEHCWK

Row | SMILES | melting point [°C] | Kb (Histamine Receptor H3) [µM]
1 | Cc1cc(Cl)ccc1Oc1ccc(C(=O)N2CC[C@H](N3CCCC3)C2)cc1 (as salt: hydrochloride) [Example 39, (3′S)-1′-[4-(4-chloro-2-methylphenoxy)benzoyl]-1,3′-bipyrrolidine] | 123 to 125 | 
2 | Cc1csc2c(Nc3ccc(C(=O)N4CCC(N(C)C)C4)cc3)ncnc12 (stereo not drawn) [Example 7, N-(4-{[3-(dimethylamino)pyrrolidin-1-yl]carbonyl}phenyl)-7-methylthieno[3,2-d]pyrimidin-4-amine] |  | 0.014
3 | CN(C)C1CCN(C(=O)c2ccc(NC(=O)c3ccc4ccccc4n3)cc2)C1 (stereo not drawn) [Example 17, N-(4-{[3-(dimethylamino)pyrrolidin-1-yl]carbonyl}phenyl)quino-line-2-carboxamide] |  | 0.057

Next, values leading:

Row | melting point [°C] | Kb (Histamine Receptor H3) [µM] | SMILES
4 | 98 to 100 |  | Cc1ccc(Oc2ccc(C(=O)N3CC[C@H](N4CCCC4)C3)cc2)cc1 (as salt: hydrochloride) [Example 35, (3′S)-1′-[4-(4-methylphenoxy)benzoyl]-1,3′-bipyrrolidine]
5 | 82 to 84 |  | COc1cccc(Oc2ccc(C(=O)N3CC[C@H](N4CCCC4)C3)cc2)c1 (as salt: hydrochloride) [Example 36, (3′S)-1′-[4-(3-methoxyphenoxy)benzoyl]-1,3′-bipyrrolidine]
6 | 124 to 126 |  | Cc1ccc(Oc2ccc(C(=O)N3CC[C@H](N4CCCC4)C3)cc2)c(Cl)c1 (as salt: hydrochloride) [Example 40, (3′S)-1′-[4-(2-chloro-4-methylphenoxy)benzoyl]-1,3′-bipyrrolidine]
